Results as given in patent US12344572B2, “Cationic lipids and transfection methods” (Factor Bioscience Inc., priority 2019, dated 2025).

What was measured:
[1] = tested on: primary human epidermal keratinocytes; assay: Transfection of primary human epidermal keratinocytes with GFP-encoding RNA complexed with lipid, in 100% FBS; type: cell-based
[2] = tested on: human peripheral blood mononuclear cells (hPBMCs); assay: Transfection of human peripheral blood mononuclear cells with GFP-encoding RNA complexed with lipid; type: cell-based; conditions: images 16 hours following transfection; both lipid-to-RNA mass ratios tested
[3] = tested on: confluent layer of primary human epidermal keratinocytes; assay: Transfection of a confluent layer of primary human epidermal keratinocytes with GFP-encoding RNA; type: cell-based; conditions: images 24 hours following transfection; both lipid-to-RNA mass ratios tested
[4] = tested on: primary human adult dermal fibroblasts; assay: Transfection of primary human adult dermal fibroblasts with GFP-encoding RNA; type: cell-based; conditions: images 16 hours following transfection; both lipid-to-RNA mass ratios tested
[5] = tested on: primary human epidermal keratinocytes; assay: Gene editing of keratinocytes with RNA encoding gene-editing proteins, T7E1 endonuclease digestion; type: cell-based; conditions: RNA encoding gene-editing proteins complexed with lipid
[6] = tested on: human epidermal keratinocytes; assay: GFP mRNA delivery to keratinocytes in serum-free medium or 50% FBS; type: cell-based; conditions: 20,000 keratinocytes, 0% FBS or 50% FBS, images 16 hours following transfection; DLinDHS at 2.5 μg/μg lipid-to-RNA; LNPs 300 ng final mRNA
[7] = tested on: primary human dermal fibroblasts; assay: Time-lapse fluorescence imaging of labeled RNA / labeled lipid uptake in dermal fibroblasts; type: cell-based
[8] = Particle size of DLinDHS/RNA complexes by dynamic light scattering; type: physicochemical; conditions: DLinDHS/RNA complexes formed in aqueous mRNA solution with varied sodium chloride concentration
[9] = Zeta potential of DLinDHS/RNA complexes versus buffer pH; type: physicochemical
RNase A = assay: Protection of mRNA from RNase A degradation, GFP readout in keratinocytes; type: cell-based; conditions: DLinDHS/mRNA complexes treated with RNase A after complexation, 2.5 μg/μg, 20,000 keratinocytes in serum-free medium
Rat = assay: mRNA delivery in rat by intradermal injection, anti-GFP histology; type: in vivo; conditions: GFP mRNA complexed at 2.5 μg/μg, necropsy 48 hours
human subject = assay: In vivo mRNA delivery to a human subject by intradermal injection, confocal fluorescence microscopy of biopsy; conditions: human male, ventral forearm, 400 ng RNA in 20 μL, 2.5 μg/μg, biopsy after 48 hours

particle size of lipoplex (Z-average, DLS) [8]: ionic-strength dependent
dependence of zeta potential on pH ([9]; DLinDHS/RNA lipoplexes diluted into 20 mM citrate pH 3.0-6.0 or 20 mM phosphate pH 7.4): pH-dependent
zeta potential ([9]; DLinDHS/RNA lipoplexes, 2.5 μg/μg, 20 mM phosphate, pH 7.4): −22.1 mV
protection of complexed RNA from RNase A degradation (GFP expression) (RNase A): protected from degradation
SMILES: CCCCC/C=C\C/C=C\CCCCCCCCN(CCCCN(CCCCCCCC/C=C\C/C=C\CCCCC)CC(O)CN)CC(O)CN (centres unmarked) [DHDLinS, N^1,N^4-dilinoleyl-N^1,N^4-di-(2-hydroxy-3-aminopropyl)-diaminobutane]
transfection of keratinocytes (GFP fluorescence) ([1]; 400 ng per well GFP RNA, complexation in DMEM, transfection in 100% FBS, images 8 hours after transfection, lipid without acetone purification): transfected with high efficiency
lipid-to-RNA mass ratios at which minimal increase in fluorescence signal was observed ([1]; DHDLinS purified by extraction with acetone, keratinocytes, images 16 hours following transfection): greater than 2 μg/μg
time after transfection at which a fluorescent signal was detected ([1]; experiment of FIG. 1, keratinocytes, 100% FBS): one
transfection of hPBMCs (GFP fluorescence) [2]: effectively transfected hPBMCs at both lipid-to-RNA mass ratios tested
transfection of confluent keratinocytes (GFP fluorescence) [3]: effectively transfected
transfection of adult dermal fibroblasts (GFP fluorescence) [4]: effectively transfected
gene-editing efficiency [5]: gene edited at high efficiency
mRNA delivery in serum (GFP fluorescence) [6]: efficiently delivers mRNA in 50% serum
time after transfection at which protein expression begins ([7]; 100 ng GFP mRNA, 2.5 μg/μg, 20,000 fibroblasts in 10% FBS): ≤ 2.5 h
time to detection of mRNA in cytoplasm after contact with lipoplexes ([7]; 100 ng GFP mRNA, 20% Cy5-labeled, 2.5 μg/μg, 20,000 fibroblasts in 10% FBS): ≤ 50 min
contact of labeled lipid with cells ([7]; BODIPY-labeled DLinDHS (10:1), 200 ng GFP mRNA, fibroblasts): contacts cells within minutes after transfection
reporter protein (GFP) expression in tissue (Rat): localized expression in the dermal layer
reporter protein (RFP) expression in skin (human subject): RFP-positive cells that have a morphology consistent with that of fibroblasts
